Test results published in US20090227607A1, “DEAZAPURINES USEFUL AS INHIBITORS OF JANUS KINASES” (priority 2006, published 2009).

Assays:
JAK3 = target: T1, JAK3 (Homo sapiens, UniProt P52333); assay: JAK3 Inhibition Assay; format: biochemical; settings: 1 μM poly(Glu)4Tyr, 5 μM ATP, 1 nM JAK3, 25° C.; read-out: JAK3 enzyme inhibition data (Ki)
T1 sequence (P52333 1-1124): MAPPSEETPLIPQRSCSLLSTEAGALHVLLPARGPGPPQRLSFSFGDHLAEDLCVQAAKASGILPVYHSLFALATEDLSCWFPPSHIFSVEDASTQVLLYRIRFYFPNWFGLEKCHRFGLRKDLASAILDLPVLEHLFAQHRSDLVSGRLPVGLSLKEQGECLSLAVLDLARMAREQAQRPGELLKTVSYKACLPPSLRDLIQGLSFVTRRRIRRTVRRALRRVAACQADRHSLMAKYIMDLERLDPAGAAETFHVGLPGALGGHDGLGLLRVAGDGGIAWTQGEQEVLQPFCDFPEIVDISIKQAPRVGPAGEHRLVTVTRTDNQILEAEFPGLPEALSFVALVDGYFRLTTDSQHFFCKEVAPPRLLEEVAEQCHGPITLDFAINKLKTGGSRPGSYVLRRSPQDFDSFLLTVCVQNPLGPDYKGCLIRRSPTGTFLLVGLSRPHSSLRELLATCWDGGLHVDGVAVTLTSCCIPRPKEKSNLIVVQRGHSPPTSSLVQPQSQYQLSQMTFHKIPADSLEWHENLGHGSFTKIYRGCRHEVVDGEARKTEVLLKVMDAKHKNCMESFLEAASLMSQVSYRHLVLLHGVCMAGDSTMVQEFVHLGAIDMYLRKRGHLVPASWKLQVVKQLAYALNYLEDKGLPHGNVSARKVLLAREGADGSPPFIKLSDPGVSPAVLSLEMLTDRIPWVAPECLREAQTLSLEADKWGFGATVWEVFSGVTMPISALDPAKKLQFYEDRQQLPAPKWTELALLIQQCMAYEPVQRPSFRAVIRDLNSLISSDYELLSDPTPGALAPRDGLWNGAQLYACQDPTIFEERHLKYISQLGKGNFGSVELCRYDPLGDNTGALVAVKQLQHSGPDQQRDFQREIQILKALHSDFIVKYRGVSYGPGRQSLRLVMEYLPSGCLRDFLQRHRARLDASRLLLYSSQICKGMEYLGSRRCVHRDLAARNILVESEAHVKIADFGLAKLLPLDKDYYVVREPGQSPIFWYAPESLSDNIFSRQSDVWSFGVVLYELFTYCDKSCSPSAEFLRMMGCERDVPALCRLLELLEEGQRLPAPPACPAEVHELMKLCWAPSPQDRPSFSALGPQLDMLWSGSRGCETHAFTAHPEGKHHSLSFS
Method: (§1) Compounds were screened for their ability to inhibit JAK3 using the assay shown below. Reactions were carried out in a kinase buffer containing 100 mM HEPES (pH 7.4), 1 mM DTT, 10 mM MgCl2, 25 mM NaCl, and 0.01% BSA. Substrate concentrations in the assay were 5 μM ATP (200 uCi/μmole ATP) and 1 μM poly(Glu)4Tyr. Reactions were carried out at 25° C. and 1 nM JAK3.
(§2) To each well of a 96 well polycarbonate plate was added 1.5 μl of a candidate JAK3 inhibitor along with 50 μl of kinase buffer containing 2 μM poly(Glu)4Tyr and […]. This was then mixed and […] of kinase buffer containing 2 nM JAK3 enzyme was added to start the reaction. After 20 minutes at room temperature (25° C.), the reaction was stopped with 50 μl of 20% trichloroacetic acid (TCA) that also contained 0.4 mM ATP. The entire contents of each well were then transferred to a 96 well glass fiber filter plate using a TomTek Cell Harvester. After washing, 60 μl of scintillation fluid was added and ^33P incorporation detected on a Perkin Elmer TopCount.
(§3) Tables 5 and 6 depict enzyme inhibition data (Ki) for certain exemplary compounds. Compound numbers in Tables 5 and 6 correspond to those compounds depicted in Tables 1 and 2, respectively.

JAK-2 enzyme = JAK-2 enzyme (Homo sapiens, UniProt O60674); assay: JAK2 Inhibition Assay; format: biochemical; settings: 15 μM poly(Glu)4Tyr, 12 μM ATP, 25° C.
JAK-2 enzyme, sequence (O60674 whole entry, species assumed): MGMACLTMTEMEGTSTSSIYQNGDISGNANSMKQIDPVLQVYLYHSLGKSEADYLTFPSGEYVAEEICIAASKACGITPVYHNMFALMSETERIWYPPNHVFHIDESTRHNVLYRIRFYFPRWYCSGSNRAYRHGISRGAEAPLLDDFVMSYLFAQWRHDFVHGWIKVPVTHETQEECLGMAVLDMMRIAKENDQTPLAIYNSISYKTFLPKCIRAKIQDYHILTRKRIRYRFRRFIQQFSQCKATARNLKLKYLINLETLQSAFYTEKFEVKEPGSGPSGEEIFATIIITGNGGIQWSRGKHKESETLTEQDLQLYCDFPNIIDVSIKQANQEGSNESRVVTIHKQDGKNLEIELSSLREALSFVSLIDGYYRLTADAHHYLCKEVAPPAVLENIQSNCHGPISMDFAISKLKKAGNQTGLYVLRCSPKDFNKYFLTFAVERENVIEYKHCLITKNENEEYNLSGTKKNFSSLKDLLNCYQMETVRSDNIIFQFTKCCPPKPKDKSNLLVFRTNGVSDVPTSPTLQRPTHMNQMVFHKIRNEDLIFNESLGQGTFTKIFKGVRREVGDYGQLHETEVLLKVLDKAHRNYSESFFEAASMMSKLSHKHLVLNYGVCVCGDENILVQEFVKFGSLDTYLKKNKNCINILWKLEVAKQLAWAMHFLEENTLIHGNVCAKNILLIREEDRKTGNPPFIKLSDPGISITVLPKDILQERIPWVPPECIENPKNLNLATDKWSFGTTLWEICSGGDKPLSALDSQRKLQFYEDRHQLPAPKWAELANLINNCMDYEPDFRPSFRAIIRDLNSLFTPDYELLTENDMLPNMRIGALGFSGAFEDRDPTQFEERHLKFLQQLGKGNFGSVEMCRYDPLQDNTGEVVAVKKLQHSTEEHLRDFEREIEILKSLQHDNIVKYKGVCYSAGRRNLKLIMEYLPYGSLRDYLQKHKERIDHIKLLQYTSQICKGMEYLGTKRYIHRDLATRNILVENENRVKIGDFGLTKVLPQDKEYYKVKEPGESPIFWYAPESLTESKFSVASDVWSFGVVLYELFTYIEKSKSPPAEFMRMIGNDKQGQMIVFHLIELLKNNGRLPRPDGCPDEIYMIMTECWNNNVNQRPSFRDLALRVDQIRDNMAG
Method: as §1, §2
The assays were as described above in Example 36 except that JAK-2 enzyme was used, the final poly(Glu)4Tyr concentration was 15 μM, and final ATP concentration was 12 μM.
as §3

Compound	Ki (JAK3)	Ki (JAK-2 enzyme)
CCC(CC)n1cc(-c2ncnc3[nH]ccc23)cn1 [Compound 39]	< 100 nM	< 100 nM
CC(C)n1cc(-c2ncnc3[nH]ccc23)cn1 [Compound 34]	< 100 nM	< 100 nM
CC(C)CCC(=O)Nc1nc(-c2ncnc3[nH]ccc23)cs1 [Compound 72]	< 100 nM	< 100 nM
CC(C)(CC(=O)O)CC(=O)Nc1nc(-c2ncnc3[nH]ccc23)cs1 [Compound 145]	100 to 500 nM	100 to 500 nM
O=C(CC1CCCC1)Nc1nc(-c2ncnc3[nH]ccc23)cs1 [Compound 32]	< 100 nM	< 100 nM
CCC(CC)CNC(=O)c1cc(-c2ncnc3[nH]ccc23)c[nH]1 [Compound 138]	< 100 nM	< 100 nM
CC(=O)CCC(=O)Nc1nc(-c2ncnc3[nH]ccc23)cs1 [Compound 71]	100 to 500 nM	< 100 nM
CN(C)CCCN(C)C(=O)c1cc(-c2ncnc3[nH]ccc23)c[nH]1 [Compound 44]	500 to 5000 nM	500 to 5000 nM
C#CCN(C)C(=O)c1cc(-c2ncnc3[nH]ccc23)c[nH]1 [Compound 24]	100 to 500 nM	< 100 nM
COC(=O)N1CCC(C(=O)Nc2nc(-c3ncnc4[nH]ccc34)cs2)CC1 [Compound 171]	< 100 nM	< 100 nM
CN(CC(F)(F)F)C(=O)c1ccc(-c2ncnc3[nH]ccc23)o1 [Compound 127]	< 100 nM	< 100 nM
COCCN(CCOC)C(=O)c1cc(-c2ncnc3[nH]ccc23)c[nH]1 [Compound 25]	100 to 500 nM	< 100 nM
Cc1c[nH]c2ncnc(-c3c[nH]c(C(=O)N(CCC(F)(F)F)CC4CC4)c3)c12 [Compound 208]	< 100 nM	< 100 nM
N#CCCN(CCC#N)C(=O)c1cc(-c2ncnc3[nH]ccc23)c[nH]1 [Compound 134]	< 100 nM	< 100 nM
C=CCN(C(=O)c1cc(-c2ncnc3[nH]ccc23)c[nH]1)C(C)c1ccccc1 (centres unmarked) [Compound 116]	< 100 nM	< 100 nM
O=C(c1cc(-c2ncnc3[nH]ccc23)c[nH]1)N(CC1CC1)CC(F)(F)F [Compound 109]	< 100 nM	< 100 nM
CN(CC(F)(F)F)C(=O)c1cc(-c2ncnc3[nH]ccc23)c[nH]1 [Compound 55]	100 to 500 nM	< 100 nM
CCCC(CCC)n1cc(-c2ncnc3[nH]ccc23)cn1 [Compound 37]	< 100 nM	< 100 nM
CC[C@@H]1CC[C@@H](CC)N1C(=O)c1cc(-c2ncnc3[nH]ccc23)co1 [Compound 246]	100 to 500 nM	< 100 nM
CC(C)(C)CC(=O)Nc1nc(-c2ncnc3[nH]ccc23)cs1 [Compound 66]	< 100 nM	< 100 nM
O=C1CCC(C(=O)Nc2nc(-c3ncnc4[nH]ccc34)cs2)CC1 [Compound 65]	< 100 nM	< 100 nM
CC1CCCN1C(=O)c1ccc(-c2ncnc3[nH]ccc23)o1 (centres unmarked) [Compound 218]	100 to 500 nM	< 100 nM
C[C@@H]1CC[C@H](C)N1C(=O)c1cc(-c2ncnc3[nH]ccc23)c[nH]1 [Compound 132]	100 to 500 nM	< 100 nM
O=C(c1cc(-c2ncnc3[nH]ccc23)c[nH]1)N(CCC(F)(F)F)C1CCCC1 [Compound 188]	100 to 500 nM	< 100 nM
O=C(CC1CC1)Nc1nc(-c2ncnc3[nH]ccc23)cs1 [Compound 70]	< 100 nM	< 100 nM
CCC(O)CNC(=O)C(C)n1cc(-c2ncnc3[nH]ccc23)cn1 (centres unmarked) [Compound 83]	100 to 500 nM	500 to 5000 nM
CCN(Cc1ccccc1)C(=O)c1ccc(-c2ncnc3[nH]ccc23)o1 [Compound 118]	< 100 nM	< 100 nM

Compound	Ki (JAK3)	Ki (JAK-2 enzyme)
CC(C)CNC(=O)C(C)n1cc(-c2ncnc3[nH]ccc23)cn1 (centres unmarked) [Compound 74]	< 100 nM	100 to 500 nM
CCC1CC[C@@H](CC)N1C(=O)c1cc(-c2ncnc3[nH]ccc23)c[nH]1 (some centres unmarked) [Compound 184]	100 to 500 nM	< 100 nM
O=C1[C@H]2CCCC[C@H]2C(=O)N1c1nc(-c2ncnc3[nH]ccc23)cs1 [Compound 181]	100 to 500 nM	100 to 500 nM
O=C(c1cc(-c2ncnc3[nH]ccc23)co1)N(CC1CCC1)CC(F)(F)F [Compound 251]	100 to 500 nM	100 to 500 nM
N#CCCN(CC1CC1)C(=O)c1cc(-c2ncnc3[nH]ccc23)c[nH]1 [Compound 115]	< 100 nM	< 100 nM
CC(CO)NC(=O)C(C)n1cc(-c2ncnc3[nH]ccc23)cn1 (centres unmarked) [Compound 79]	100 to 500 nM	500 to 5000 nM
Cn1cc(-c2ncnc3[nH]ccc23)cc1C(=O)N(CCC(F)(F)F)CC1CC1 [Compound 225]	< 100 nM	< 100 nM
CCN(CCO)C(=O)c1cc(-c2ncnc3[nH]ccc23)c[nH]1 [Compound 40]	100 to 500 nM	< 100 nM
CC[C@@H]1CC[C@@H](CC)N1C(=O)c1cc(-c2ncnc3[nH]ccc23)c[nH]1 [Compound 185]	100 to 500 nM	< 100 nM
CC(C(=O)N(C)C)n1cc(-c2ncnc3[nH]ccc23)cn1 (centres unmarked) [Compound 77]	500 to 5000 nM	100 to 500 nM
CN(CCc1ccccn1)C(=O)c1cc(-c2ncnc3[nH]ccc23)c[nH]1 [Compound 46]	100 to 500 nM	100 to 500 nM
Cc1c[nH]c2ncnc(-c3c[nH]c(C(=O)N(C)CCc4ccccc4)c3)c12 [Compound 203]	100 to 500 nM	< 100 nM
O=C(c1cc(-c2ncnc3[nH]cc(Cl)c23)c[nH]1)N(CCC(F)(F)F)CC1CCC1 [Compound 241]	100 to 500 nM	< 100 nM
CC(C(=O)NCC1CCCO1)n1cc(-c2ncnc3[nH]ccc23)cn1 (centres unmarked) [Compound 76]	500 to 5000 nM	500 to 5000 nM
O=C(NCC(F)(F)F)c1cc(-c2ncnc3[nH]ccc23)c[nH]1 [Compound 7]	< 100 nM	< 100 nM
O=C(c1ccc(-c2ncnc3[nH]ccc23)o1)N(CC1CC1)CC(F)(F)F [Compound 120]	< 100 nM	< 100 nM
CC(C)CCn1cc(-c2ncnc3[nH]ccc23)cn1 [Compound 107]	100 to 500 nM	< 100 nM
CC1CCC(C(=O)Nc2nc(-c3ncnc4[nH]ccc34)cs2)CC1 (centres unmarked) [Compound 62]	100 to 500 nM	< 100 nM
O=C(c1cc(-c2ncnc3[nH]ccc23)c[nH]1)N(CCC(F)(F)F)Cc1ccccc1 [Compound 108]	< 100 nM	< 100 nM
N#CCCN(CCC(F)(F)F)C(=O)c1cc(-c2ncnc3[nH]cc(Cl)c23)c[nH]1 [Compound 242]	< 100 nM	< 100 nM
O=C(c1ccc(-c2ncnc3[nH]ccc23)o1)N(CC1CCC1)CC(F)(F)F [Compound 216]	< 100 nM	< 100 nM
CC(C(=O)N1CCCC1)n1cc(-c2ncnc3[nH]ccc23)cn1 (centres unmarked) [Compound 87]	100 to 500 nM	100 to 500 nM
N#CCCN(Cc1ccccc1)C(=O)c1cc(-c2ncnc3[nH]ccc23)c[nH]1 [Compound 29]	< 100 nM	< 100 nM
C=CCN(C(=O)c1cc(-c2ncnc3[nH]ccc23)co1)[C@@H](C)c1ccccc1 [Compound 248]	100 to 500 nM	< 100 nM
CC(C(=O)OC(C)(C)C)n1cc(-c2ncnc3[nH]ccc23)cn1 (centres unmarked) [Compound 95]		100 to 500 nM
O=C(N[C@H](CO)c1cccc(Cl)c1)c1cc(-c2ncnc3[nH]ccc23)c[nH]1 [Compound 1]	< 100 nM	
